Assays:
[1] = test system: tumor-bearing mice (mice ascites tumor s180 cells); experiment: Effect on chemotherapy-induced bone marrow suppression in tumor-bearing mice (routine blood test); format: in vivo, Kunming mice; conditions: after 10 days once daily, docetaxel 75 mg/m^2/d iv, Tegafur/Gimeracil/Oteracil capsules 222.2 mg/m^2/d intragastric, icaritin 10 mg/kg/d iv
Procedure: Mice ascites tumor s180 cells were conventionally incubated in 1640 culture medium, at 37° C., 5% CO2, and passaged once every two days in average. The cells in the logarithmic growth phase were prepared into a single-cell suspension having a density of 3.0×10^7 cells/ml with normal saline, which was injected into the abdominal cavities of mice under sterile conditions. Seven days after inoculation, significant swelling of the abdominal cavities of mice can be seen. As this time, the mice were executed by cervical vertebra luxation, put into a beaker containing 75% ethanol and soaked for 2-3 minutes. The sterilized mice were placed into an ultraclean bench, and the abdomens were exposed. The ascites was drawn with a sterile syringe and put into a sterile reagent bottle for further use. The above ascites was counted with trypan blue, diluted with normal saline to adjust to 2.0×10^7 cells/ml, and inoculated at the right armpit of the mice with 0.2 ml for each mouse. The inoculated mice were randomly divided into 6 groups, with 10 animals in each group and half male and half female. Group 1, the model control group: the test animals were intraperitoneally injected with0.9% normal saline (same for the following experiments); Group 2, the docetaxel group: 75 mg/m^2/d of docetaxel; Group 3, the Tegafur, Gimeracil and Oteracil Potassium Capsules group: 222.2 mg/m^2/d of Tegafur, Gimeracil and Oteracil Potassium Capsules; Group 4, the icaritin group: 10 mg/kg/d of the icaritin microemulsion formulation; Group 5, the D+I group (docetaxel+icaritin group): 75 mg/m^2/d of docetaxel+[…] of icaritin; Group 6, the T +I group (Tegafur, Gimeracil and Oteracil Potassium Capsules+icaritin group): 222.2 mg/m^2/d of Tegafur, Gimeracil and Oteracil Potassium Capsules+10 mg/kg/d of icaritin. Docetaxel and icaritin were administered by tail intravenous injection with an administration volume of 10 ml/kg for each. Tegafur, Gimeracil and Oteracil Potassium Capsules was intragastrically administered with an administration volume of 40 ml/kg. Each group was administered once a day for totally 10 days. During the test, the animals were observed every day for their food and water uptake, survival conditions and behaviors, and measured for their body weights every day. After the test was ended, the mice were anaesthetized and anatomized. Blood was collected from abdominal aorta for routine blood test, and the total number of white blood cells, the total number of platelets and the total number of neutrophils were determined.

[2] = test system: mice receiving 4 Gy of ^60Co radiation; experiment: Effect on the number of blood cells in mice receiving 4 Gy of ^60Co radiation; format: in vivo, Kunming mice; conditions: 4 Gy ^60Co irradiated mice; ip once a day for 10 days; epimedium extract 3.5 ml/kg/d, icaritin 10 mg/kg/d
From the text: Mice in each group, except for the normal group (10 mice), were radiated with 4 Gy of ^60Co by one-time systemic radiation with an absorbed dose of 4 Gy and an absorbed dose rate of 0.88 Gy/min. Blood was sampled at days 3, 7 and 10 after the radiation, respectively, from orbital vein for the whole blood cell count. The mice of which the number of white blood cells was lower than 3.0×10^9/L or the number of platelets was lower than 500×10^9/L in two consecutive whole blood cell counts were excluded, and the remaining mice were used to be tested.
The mice which met the requirements of the experiment after the radiation were randomly divided into the following model control group, epimedium extract group and icaritin group, with 10 animals in each group and half male and half female. Each group was treated or administered as follows.
Group 1, the normal group: administered by intraperitoneal injection with 0.9% normal saline in an administration volume of 10 ml/kg;
Group 2, the model control group: administered by intraperitoneal injection with 0.9% normal saline in an administration volume of 10 ml/kg; […]
Each group was administered once a day for totally 10 days. […] After the test was ended, blood was sampled from abdominal aorta for routine blood test, and the total number of white blood cells and the total number of platelets were determined.

[3] = test system: active immune thrombocytopenia mice; experiment: Active immune thrombocytopenia in mice (platelets in peripheral blood); format: in vivo, Balb/C mice; conditions: x ± s
Procedure: 72 Balb/C mice were selected, weighed, and randomly divided into […] administration groups, i.e. the normal group, the model control group, the icariin group (positive control group), and the icaritin administration groups (high-, medium-, and low-dose groups), with 12 mice in each group. […] On the second day after the model was established, each group was administered with the following therapeutic agents: The normal group: administered intragastrically with the same volume of normal saline; The model control group: administered intragastrically with the same volume of normal saline; The […]: […]; The high-dose icaritin group: […] Example 9; The medium-dose icaritin group: […] Example 9; The low-dose icaritin group: […] Each of the administration groups was administered once a day and fed normally. After establishing the model three times, each administration group was continued to be administered for one week. The mice were anesthetized, and blood was sampled to measure the number of platelets and determine the effect of icaritin on the number of platelets (PLT) in the peripheral blood.

Structure (SMILES): COc1ccc(-c2oc3c(CC=C(C)C)c(O)cc(O)c3c(=O)c2O)cc1 [Icaritin]
- Neutrophils [1]: 1.316 ± 0.15^#**^$$ 10^9/L
- Platelets [1]: 687.4 ± 37.2^## 10^9/L
- White blood cells [1]: 3.530 ± 0.31^##**^$$ 10^9/L
- Platelets [2]: 596.2 ± 72.5^#$ 10^9/L
- White blood cells [2]: 4.225 ± 0.51^##$ 10^9/L
- PLT ([3]; high dose 100 mg/kg intragastric (tablets of Example 9)): 1193.4 ± 95.4 10^9/L
- PLT ([3]; low dose 10 mg/kg intragastric (tablets of Example 9)): 862.7 ± 75.6 10^9/L
- PLT ([3]; medium dose 50 mg/kg intragastric (tablets of Example 9)): 983.5 ± 85.7 10^9/L
